# Results: PubChem BioAssay (NCI)
#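 Grown in 96-well plates, cells were treated for 48 hours with each compound at five concentrations. Insufficient inhibition: endpoint recorded as highest concentration tested. TGI: concentration producing complete growth inhibition.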
# Experiments:
# Assay in all cases: DTP human tumour cell line panel, 48 h
# HS 578T breast = test system: HS 578T breast
# HT29 colon = test system: HT29 colon
# TK-10 renal = test system: TK-10 renal
# MDA-N = test system: MDA-N
# NCI/ADR-RES ovarian = test system: NCI/ADR-RES ovarian
# UACC-257 melanoma = test system: UACC-257 melanoma
# SW-620 colon = test system: SW-620 colon
# SK-MEL-2 melanoma = test system: SK-MEL-2 melanoma
# SNB-19 CNS = test system: SNB-19 CNS
# KM12 colon = test system: KM12 colon
# DU-145 prostate = test system: DU-145 prostate
# CCRF-CEM leukemia = test system: CCRF-CEM leukemia
# M14 melanoma = test system: M14 melanoma
# OVCAR-5 ovarian = test system: OVCAR-5 ovarian
# HCT-116 colon = test system: HCT-116 colon
# 786-0 renal = test system: 786-0 renal
# SN12C renal = test system: SN12C renal
# OVCAR-3 ovarian = test system: OVCAR-3 ovarian
# SK-MEL-28 melanoma = test system: SK-MEL-28 melanoma
# CAKI-1 renal = test system: CAKI-1 renal
# SF-268 CNS = test system: SF-268 CNS
# HOP-62 NSCLC = test system: HOP-62 NSCLC
# U251 CNS = test system: U251 CNS
# SNB-75 CNS = test system: SNB-75 CNS
# ACHN renal = test system: ACHN renal
# PC-3 prostate = test system: PC-3 prostate
# A498 renal = test system: A498 renal
# HL-60(TB) leukemia = test system: HL-60(TB) leukemia
# MDA-MB-231 breast = test system: MDA-MB-231 breast
# EKVX NSCLC = test system: EKVX NSCLC
# K-562 leukemia = test system: K-562 leukemia
# SK-MEL-5 melanoma = test system: SK-MEL-5 melanoma
# NCI-H460 lung = test system: NCI-H460 lung
# UO-31 renal = test system: UO-31 renal
# HCT-15 colon = test system: HCT-15 colon
# SR leukemia = test system: SR leukemia
# HOP-92 NSCLC = test system: HOP-92 NSCLC
# MDA-MB-435 = test system: MDA-MB-435
# SF-295 CNS = test system: SF-295 CNS
# NCI-H226 lung = test system: NCI-H226 lung
# NCI-H23 lung = test system: NCI-H23 lung
# OVCAR-8 ovarian = test system: OVCAR-8 ovarian
# T-47D breast = test system: T-47D breast
# OVCAR-4 ovarian = test system: OVCAR-4 ovarian
# RPMI-8226 leukemia = test system: RPMI-8226 leukemia
# SK-OV-3 ovarian = test system: SK-OV-3 ovarian
# MCF7 breast = test system: MCF7 breast
# IGROV1 ovarian = test system: IGROV1 ovarian
# MOLT-4 leukemia = test system: MOLT-4 leukemia
# A549 NSCLC = test system: A549 NSCLC
# UACC-62 melanoma = test system: UACC-62 melanoma
# COLO 205 colon = test system: COLO 205 colon
# BT-549 breast = test system: BT-549 breast
# HCC-2998 colon = test system: HCC-2998 colon
# RXF 393 renal = test system: RXF 393 renal
# LOX IMVI melanoma = test system: LOX IMVI melanoma
# MALME-3M melanoma = test system: MALME-3M melanoma
# NCI-H522 lung = test system: NCI-H522 lung
# SF-539 CNS = test system: SF-539 CNS
structure (smiles),measurement,setting,value
C=C[C@@H](OCOCC[Si](C)(C)C)[C@@H](CC)OC(CCCOC(=O)C(C)(C)C)OC (stereo partly specified),TGI,HS 578T breast,99.5 µM
same,TGI,HT29 colon,> 100 µM
same,TGI,TK-10 renal,78.9 µM
same,TGI,MDA-N,> 100 µM
same,TGI,NCI/ADR-RES ovarian,> 100 µM
same,TGI,UACC-257 melanoma,> 100 µM
same,TGI,SW-620 colon,70.1 µM
same,TGI,SK-MEL-2 melanoma,52.9 µM
same,TGI,SNB-19 CNS,32.3 µM
same,TGI,KM12 colon,63 µM
same,TGI,DU-145 prostate,> 100 µM
same,TGI,CCRF-CEM leukemia,92.8 µM
same,TGI,M14 melanoma,> 100 µM
same,TGI,OVCAR-5 ovarian,44.4 µM
same,TGI,HCT-116 colon,52.8 µM
same,TGI,786-0 renal,88.5 µM
same,TGI,SN12C renal,> 100 µM
same,TGI,OVCAR-3 ovarian,> 100 µM
same,TGI,SK-MEL-28 melanoma,> 100 µM
same,TGI,CAKI-1 renal,> 100 µM
same,TGI,SF-268 CNS,> 100 µM
same,TGI,HOP-62 NSCLC,> 100 µM
same,TGI,U251 CNS,57.6 µM
same,TGI,SNB-75 CNS,> 100 µM
same,TGI,ACHN renal,> 100 µM
same,TGI,PC-3 prostate,> 100 µM
same,TGI,A498 renal,> 100 µM
same,TGI,HL-60(TB) leukemia,49.6 µM
same,TGI,MDA-MB-231 breast,> 100 µM
same,TGI,EKVX NSCLC,65.4 µM
same,TGI,K-562 leukemia,> 100 µM
same,TGI,SK-MEL-5 melanoma,> 100 µM
same,TGI,NCI-H460 lung,> 100 µM
same,TGI,UO-31 renal,> 100 µM
same,TGI,HCT-15 colon,50.9 µM
same,TGI,SR leukemia,> 100 µM
same,TGI,HOP-92 NSCLC,> 100 µM
same,TGI,MDA-MB-435,> 100 µM
same,TGI,SF-295 CNS,50.7 µM
same,TGI,NCI-H226 lung,81.6 µM
same,TGI,NCI-H23 lung,> 100 µM
same,TGI,OVCAR-8 ovarian,> 100 µM
same,TGI,T-47D breast,56.5 µM
same,TGI,OVCAR-4 ovarian,> 100 µM
same,TGI,RPMI-8226 leukemia,> 100 µM
same,TGI,SK-OV-3 ovarian,> 100 µM
same,TGI,MCF7 breast,44.9 µM
same,TGI,IGROV1 ovarian,> 100 µM
same,TGI,MOLT-4 leukemia,> 100 µM
same,TGI,A549 NSCLC,> 100 µM
same,TGI,UACC-62 melanoma,81.3 µM
same,TGI,COLO 205 colon,95.1 µM
C=CCN1C(=O)CC1N(CC=C)S(=O)(=O)c1ccc(C)cc1 (stereo unspecified),TGI,HS 578T breast,> 100 µM
same,TGI,BT-549 breast,> 100 µM
same,TGI,HT29 colon,> 100 µM
same,TGI,TK-10 renal,> 100 µM
same,TGI,HCC-2998 colon,> 100 µM
same,TGI,MDA-N,> 100 µM
same,TGI,NCI/ADR-RES ovarian,> 100 µM
same,TGI,UACC-257 melanoma,> 100 µM
same,TGI,SW-620 colon,> 100 µM
same,TGI,SNB-19 CNS,> 100 µM
same,TGI,KM12 colon,> 100 µM
same,TGI,DU-145 prostate,> 100 µM
same,TGI,CCRF-CEM leukemia,> 100 µM
same,TGI,M14 melanoma,> 100 µM
same,TGI,OVCAR-5 ovarian,> 100 µM
same,TGI,HCT-116 colon,> 100 µM
same,TGI,RXF 393 renal,> 100 µM
same,TGI,786-0 renal,> 100 µM
same,TGI,SN12C renal,> 100 µM
same,TGI,LOX IMVI melanoma,> 100 µM
same,TGI,OVCAR-3 ovarian,> 100 µM
same,TGI,SK-MEL-28 melanoma,> 100 µM
same,TGI,CAKI-1 renal,> 100 µM
same,TGI,U251 CNS,> 100 µM
same,TGI,ACHN renal,> 100 µM
same,TGI,PC-3 prostate,> 100 µM
same,TGI,A498 renal,> 100 µM
same,TGI,HL-60(TB) leukemia,> 100 µM
same,TGI,EKVX NSCLC,> 100 µM
same,TGI,K-562 leukemia,> 100 µM
same,TGI,SK-MEL-5 melanoma,> 100 µM
same,TGI,NCI-H460 lung,> 100 µM
same,TGI,UO-31 renal,> 100 µM
same,TGI,MALME-3M melanoma,> 100 µM
same,TGI,NCI-H522 lung,> 100 µM
same,TGI,HCT-15 colon,> 100 µM
same,TGI,SR leukemia,> 100 µM
same,TGI,HOP-92 NSCLC,> 100 µM
same,TGI,MDA-MB-435,> 100 µM
same,TGI,SF-295 CNS,> 100 µM
same,TGI,NCI-H226 lung,> 100 µM
same,TGI,NCI-H23 lung,> 100 µM
same,TGI,OVCAR-8 ovarian,> 100 µM
same,TGI,OVCAR-4 ovarian,> 100 µM
same,TGI,RPMI-8226 leukemia,> 100 µM
same,TGI,SK-OV-3 ovarian,> 100 µM
same,TGI,MCF7 breast,> 100 µM
same,TGI,IGROV1 ovarian,> 100 µM
same,TGI,MOLT-4 leukemia,> 100 µM
same,TGI,A549 NSCLC,> 100 µM
same,TGI,UACC-62 melanoma,> 100 µM
same,TGI,COLO 205 colon,> 100 µM
CCN(CC)CCNc1ccc2ncn3c4c(OC)ccc(OC)c4c(=O)c1c23,TGI,TK-10 renal,> 100 µM
same,TGI,HCC-2998 colon,31 µM
same,TGI,MDA-N,25.4 µM
same,TGI,NCI/ADR-RES ovarian,31.1 µM
same,TGI,UACC-257 melanoma,> 100 µM
same,TGI,SW-620 colon,18.2 µM
same,TGI,SNB-19 CNS,58.7 µM
same,TGI,KM12 colon,22.6 µM
same,TGI,DU-145 prostate,25.7 µM
same,TGI,CCRF-CEM leukemia,27.1 µM
same,TGI,M14 melanoma,34.4 µM
same,TGI,HCT-116 colon,17.3 µM
same,TGI,RXF 393 renal,10.3 µM
same,TGI,786-0 renal,70.9 µM
same,TGI,OVCAR-3 ovarian,> 100 µM
same,TGI,SK-MEL-28 melanoma,39.2 µM
same,TGI,CAKI-1 renal,> 100 µM
same,TGI,SF-268 CNS,17.2 µM
same,TGI,HOP-62 NSCLC,> 100 µM
same,TGI,U251 CNS,35.6 µM
same,TGI,SNB-75 CNS,23.3 µM
same,TGI,ACHN renal,> 100 µM
same,TGI,A498 renal,> 100 µM
same,TGI,MDA-MB-231 breast,29.1 µM
same,TGI,EKVX NSCLC,35.6 µM
same,TGI,K-562 leukemia,49.4 µM
same,TGI,SK-MEL-5 melanoma,31.4 µM
same,TGI,NCI-H460 lung,31.3 µM
same,TGI,UO-31 renal,> 100 µM
same,TGI,MALME-3M melanoma,41.8 µM
same,TGI,NCI-H522 lung,44.2 µM
same,TGI,SF-539 CNS,44.1 µM
same,TGI,HCT-15 colon,38.5 µM
same,TGI,SR leukemia,43.6 µM
same,TGI,HOP-92 NSCLC,31.2 µM
same,TGI,SF-295 CNS,29.7 µM
same,TGI,NCI-H226 lung,> 100 µM
same,TGI,NCI-H23 lung,75.5 µM
same,TGI,OVCAR-8 ovarian,68.5 µM
same,TGI,T-47D breast,> 100 µM
same,TGI,SK-OV-3 ovarian,44.9 µM
same,TGI,MCF7 breast,17 µM
same,TGI,MOLT-4 leukemia,30.4 µM
same,TGI,A549 NSCLC,54.4 µM
same,TGI,UACC-62 melanoma,57.5 µM
same,TGI,COLO 205 colon,20.4 µM
CC(NC(=O)C(OC(=O)C(C)NC(=O)OC(C)(C)C)C(C)C)C(=O)OC(C(=O)O)C(C)C (stereo unspecified),TGI,HS 578T breast,> 100 µM
same,TGI,BT-549 breast,> 100 µM
same,TGI,HT29 colon,> 100 µM
same,TGI,TK-10 renal,> 100 µM
same,TGI,HCC-2998 colon,> 100 µM
same,TGI,MDA-N,> 100 µM
same,TGI,NCI/ADR-RES ovarian,> 100 µM
same,TGI,UACC-257 melanoma,> 100 µM
same,TGI,SW-620 colon,> 100 µM
same,TGI,SK-MEL-2 melanoma,> 100 µM
same,TGI,SNB-19 CNS,> 100 µM
same,TGI,KM12 colon,> 100 µM
same,TGI,DU-145 prostate,> 100 µM
same,TGI,M14 melanoma,> 100 µM
same,TGI,OVCAR-5 ovarian,> 100 µM
same,TGI,RXF 393 renal,> 100 µM
same,TGI,786-0 renal,> 100 µM
same,TGI,SN12C renal,> 100 µM
same,TGI,OVCAR-3 ovarian,> 100 µM
same,TGI,SK-MEL-28 melanoma,> 100 µM
same,TGI,CAKI-1 renal,> 100 µM
same,TGI,SF-268 CNS,> 100 µM
same,TGI,HOP-62 NSCLC,> 100 µM
same,TGI,U251 CNS,> 100 µM
same,TGI,SNB-75 CNS,> 100 µM
same,TGI,ACHN renal,> 100 µM
same,TGI,PC-3 prostate,> 100 µM
same,TGI,MDA-MB-231 breast,> 100 µM
same,TGI,EKVX NSCLC,> 100 µM
same,TGI,K-562 leukemia,> 100 µM
same,TGI,SK-MEL-5 melanoma,> 100 µM
same,TGI,NCI-H460 lung,> 100 µM
same,TGI,UO-31 renal,> 100 µM
same,TGI,MALME-3M melanoma,> 100 µM
same,TGI,NCI-H522 lung,> 100 µM
same,TGI,SF-539 CNS,> 100 µM
same,TGI,HCT-15 colon,> 100 µM
same,TGI,SR leukemia,> 100 µM
same,TGI,HOP-92 NSCLC,> 100 µM
same,TGI,MDA-MB-435,> 100 µM
same,TGI,SF-295 CNS,> 100 µM
same,TGI,NCI-H226 lung,> 100 µM
same,TGI,OVCAR-8 ovarian,> 100 µM
same,TGI,T-47D breast,> 100 µM
same,TGI,RPMI-8226 leukemia,> 100 µM
same,TGI,SK-OV-3 ovarian,> 100 µM
same,TGI,IGROV1 ovarian,> 100 µM
same,TGI,MOLT-4 leukemia,> 100 µM
same,TGI,A549 NSCLC,> 100 µM
same,TGI,UACC-62 melanoma,> 100 µM
same,TGI,COLO 205 colon,> 100 µM
